Each structure is given as a SMILES string.

For data set [1], the system named is HIV-IIIb IN T174I BT. Briefly: Antiviral assay in MT4 cells, HIV-IIIb IN T174I BT virus (from viral breakthrough). The settings on record: Human immunodeficiency virus 1, IIIB, MT4, 120 h, read-out: T174I BT EC50, MT4 cells, HIV-IIIb IN T174I BT (viral breakthrough), 5 days, CellTiter-Glo. It is filed as cell-based, HIV-1. The gist of the method:
(§1)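 First, MT4 cells are infected with HIV-IIIb for 3 h at 37 °C (0.004 m.o.i.). Next, 2000 cells are added per well to 3-fold serial compound dilutions and cultured for 5 days. Finally, CellTiter-Glo chemiluminescence is read and EC50 is derived from the 50% signal decrease.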

In data set [2] the test system is HIV-IIIb (wildtype). The experiment in a line: Antiviral assay in MT4 cells, HIV-IIIb wildtype. The settings on record: Human immunodeficiency virus 1, IIIB, MT4, 120 h, read-out: WT EC50. The class given is cell-based, HIV-1. In short, it runs like this:
as §1

Data set [3] relates to HIV-IIIb IN T174I DE. Briefly: Antiviral assay in MT4 cells, HIV-IIIb IN T174I DE virus (from dose escalation passaging). The class given is cell-based, HIV-1. The settings on record: Human immunodeficiency virus 1, IIIB, MT4, 120 h, read-out: T174I DE EC50, MT4 cells, HIV-IIIb IN T174I DE (dose escalation), 5 days, CellTiter-Glo. In short, it runs like this:
as §1

Data set [4] in a line: Hum MS stability (human microsomal stability half-life). The settings on record: human microsomes.

On to `COCCOC(=O)N1CCC(c2nn(C)c3ccc(-c4nc5cc(C)c([C@H](OC(C)(C)C)C(=O)O)c(-c6ccc(Cl)cc6)c5s4)cc23)C1` (stereo partly drawn) [Compound 73, (2S)-2-(tert-butoxy)-2-(7-(4-chlorophenyl)-2-(3-(1-((2-methoxyethoxy)carbonyl)pyrrolidin-3-yl)-1-methyl-1H-indazol-5-yl)-5-methylbenzo[d]thiazol-6-yl)acetic acid], for which the EC50 was 720 nM in data set [1], 6 nM in data set [2] and 823 nM in data set [3]. Further, the half-life in data set [4] was determined as 3.05 h.

On to `CCN1CCN(c2nn(C)c3ccc(-c4nc5cc(C)c([C@H](OC(C)(C)C)C(=O)O)c(-c6ccc(Cl)cc6)c5s4)cc23)CC1` [Compound 133, (S)-2-(tert-butoxy)-2-(7-(4-chloro-phenyl)-2-(3-(4-ethylpiperazin-1-yl)-1-methyl-1H-indazol-5-yl)-5-methylbenzo[d]thiazol-6-yl) acetic acid], for which the half-maximal effective concentration (EC50) worked out at 434 nM in data set [1], 3 nM in data set [2] and 439 nM in data set [3]. Further, the half-life in data set [4] worked out at 5.82 h.

On to `COCC(COC)N1CC(c2nn(C)c3ccc(-c4nc5cc(C)c([C@H](OC(C)(C)C)C(=O)O)c(-c6ccc(Cl)cc6)c5s4)cc23)C1` [Compound 61, (S)-2-(tert-butoxy)-2-(7-(4-chlorophenyl)-2-(3-(1-(1,3-dimethoxypropan-2-yl)azetidin-3-yl)-1-methyl-1H-indazol-5-yl)-5-methylbenzo[d]thiazol-6-yl)acetic acid], for which the EC50 in data set [1] is 1610 nM; in data set [2] it was 7 nM; in data set [3] it was 2700 nM. Also, the half-life in data set [4] was found to be 3.62 h.

With `Cc1cc2nc(-c3ccc4c(c3)c(C3CCN(C5CS(=O)(=O)C5)CC3)nn4C)sc2c(-c2ccc(Cl)cc2)c1[C@H](OC(C)(C)C)C(=O)O` [Compound 10, (S)-2-(tert-butoxy)-2-(7-(4-chlorophenyl)-2-(3-(1-(1,1-dioxidothietan-3-yl)piperidin-4-yl)-1-methyl-1H-indazol-5-yl)-5-methylbenzo[d]thiazol-6-yl)acetic Acid], the values for the half-maximal effective concentration (EC50) in data set [1], in data set [2] and in data set [3] were 275 nM, 10 nM and 303 nM, respectively. The half-life in data set [4] was 3.58 h.

Regarding `COCCN1CCCC(c2nn(C)c3ccc(-c4nc5cc(C)c([C@H](OC(C)(C)C)C(=O)O)c(-c6ccc(Cl)cc6)c5s4)cc23)C1` (stereo partly drawn) [Compound 77, (2S)-2-(tert-butoxy)-2-(7-(4-chlorophenyl)-2-(3-(1-(2-methoxyethyl)piperidin-3-yl)-1-methyl-1H-indazol-5-yl)-5-methylbenzo[d]thiazol-6-yl)acetic acid], the EC50 in data set [1] was 1810 nM; in data set [2], 9 nM; in data set [3], 3270 nM. In data set [4], the half-life was found to be 2.17 h.

With `CC(=O)N1CC(N2CCC(c3nn(C)c4ccc(-c5nc6cc(C)c([C@H](OC(C)(C)C)C(=O)O)c(-c7ccc(Cl)cc7)c6s5)nc34)CC2)C1` [Compound 185, (S)-2-(2-(3-(1-(1-acetylazetidin-3-yl)piperidin-4-yl)-1-methyl-1H-pyrazolo[4,3-b]pyridin-5-yl)-7-(4-chlorophenyl)-5-methylbenzo [d]thiazol-6-yl)-2-(tert-butoxy) acetic acid], the figures for the 50% effective concentration (EC50) in data set [1], in data set [2] and in data set [3] were 35 nM, 1 nM and 66 nM, respectively. Further, the half-life in data set [4] was 0.6 h.

With `Cc1cc2nc(-c3ccc4c(c3)c(C3CCN(C5COC5)C3)nn4C)sc2c(-c2ccc(Cl)cc2)c1[C@H](OC(C)(C)C)C(=O)O` (stereo partly drawn) [Compound 70, (2S)-2-(tert-butoxy)-2-(7-(4-chlorophenyl)-5-methyl-2-(1-methyl-3-(1-(oxetan-3-yl)pyrrolidin-3-yl)-1H-indazol-5-yl)benzo[d]thiazol-6-yl)acetic acid], the values for the concentration giving a half-maximal response (EC50) in data set [1], in data set [2] and in data set [3] were 587 nM, 7 nM and 942 nM, respectively. The half-life in data set [4] worked out at 5.87 h.

Turning to `COCCN1CCC(c2nn(C)c3ccc(-c4nc5cc(C)c([C@H](OC(C)(C)C)C(=O)O)c(-c6ccc(Cl)cc6)c5s4)cc23)CC1` [Compound 125, (S)-2-(tert-butoxy)-2-(7-(4-chloro-phenyl)-2-(3-(1-(2-methoxyethyl)piperidin-4-yl)-1-methyl-1H-indazol-5-yl)-5-methylbenzo[d]thiazol-6-yl) acetic acid], the EC50 was 400 nM in data set [1], 8 nM in data set [2] and 715 nM in data set [3]. In data set [4], this molecule came in with a half-life of 4.38 h.

On to `COC1CN(c2nn(C)c3ccc(-c4nc5cc(C)c([C@H](OC(C)(C)C)C(=O)O)c(-c6ccc(Cl)cc6)c5s4)cc23)C1` [Compound 2, (S)-2-(tert-butoxy)-2-(7-(4-chlorophenyl)-2-(3-(3-methoxyazetidin-1-yl)-1-methyl-1H-indazol-5-yl)-5-methylbenzo[d]thiazol-6-yl)acetic Acid], for which the figures for the EC50 in data set [1], in data set [2] and in data set [3] were 1020 nM, 7 nM and 2580 nM, respectively. Further, the half-life in data set [4] was 1.82 h.

Take `CC(=O)N1CCC(c2nn(C)c3ccc(-c4nc5cc(C)c([C@H](OC(C)(C)C)C(=O)O)c(-c6ccc(Cl)cc6)c5s4)cc23)C1` (stereo partly drawn) [Compound 74, (2S)-2-(2-(3-(1-acetylpyrrolidin-3-yl)-1-methyl-1H-indazol-5-yl)-7-(4-chlorophenyl)-5-methylbenzo[d]thiazol-6-yl)-2-(tert-butoxy)acetic acid]: the EC50 worked out at 349 nM in data set [1], 10 nM in data set [2] and 587 nM in data set [3]. For the same molecule, the half-life in data set [4] turned out to be 3.32 h.

As to `Cc1cc2nc(-c3ccc4c(n3)c(C3CCN(C5COC5)CC3)nn4C)sc2c(-c2ccc(Cl)cc2)c1[C@H](OC(C)(C)C)C(=O)O` [Compound 175, (S)-2-(tert-butoxy)-2-(7-(4-chloro-phenyl)-5-methyl-2-(1-methyl-3-(1-(oxetan-3-yl)piperidin-4-yl)-1H-pyrazolo [4,3-b]pyridin-5-yl)benzo[d]thiazol-6-yl) acetic acid], the values for the EC50 in data set [1], in data set [2] and in data set [3] were 122 nM, 3 nM and 252 nM, respectively. In data set [4], this molecule registered a half-life of 5.95 h.

For the molecule `Cc1cc2nc(-c3cnc4c(c3)c(C3CCN(C5COC5)CC3)cn4C)sc2c(-c2ccc(Cl)cc2)c1[C@H](OC(C)(C)C)C(=O)O` [Compound 17, (S)-2-(tert-butoxy)-2-(7-(4-chlorophenyl)-5-methyl-2-(1-methyl-3-(1-(oxetan-3-yl)piperidin-4-yl)-1H-pyrrolo[2,3-b]pyridin-5-yl)benzo[d]thiazol-6-yl)acetic Acid], the EC50 turned out to be 238 nM in data set [1], 8 nM in data set [2] and 786 nM in data set [3]. Besides, the half-life in data set [4] turned out to be 4.7 h.

Consider `COC1(C)CN(c2nn(C)c3ccc(-c4nc5cc(C)c([C@H](OC(C)(C)C)C(=O)O)c(-c6ccc(Cl)cc6)c5s4)cc23)C1` [Compound 131, (S)-2-(tert-butoxy)-2-(7-(4-chloro-phenyl)-2-(3-(3-methoxy-3-methylazetidin-1-yl)-1-methyl-1H-indazol-5-yl)-5-methylbenzo[d]thiazol-6-yl) acetic acid], for which the EC50 in data set [1] came out at 7950 nM; in data set [2], 10 nM; in data set [3] it was 3740 nM. In data set [4], this molecule displayed a half-life of 4.15 h.

For `Cc1cc2nc(-c3ccc4c(c3)c(N3CCN(CC5CC5)CC3)nn4C)sc2c(-c2ccc(Cl)cc2)c1[C@H](OC(C)(C)C)C(=O)O` [Compound 100, (S)-2-(tert-butoxy)-2-(7-(4-chlorophenyl)-2-(3-(4-(cyclopropylmethyl)piperazin-1-yl)-1-methyl-1H-indazol-5-yl)-5-methylbenzo[d]thiazol-6-yl)acetic acid], the EC50 in data set [1] came to 1880 nM; in data set [2], 10 nM; in data set [3] it was 3590 nM. The molecule further showed a half-life in data set [4] of 3.23 h.

`Cc1cc2nc(-c3ccc4c(c3)c(N3CC[C@@H](N(C)C)C3)nn4C)sc2c(-c2ccc(Cl)cc2)c1[C@H](OC(C)(C)C)C(=O)O` [Compound 92, (S)-2-(tert-butoxy)-2-(7-(4-chlorophenyl)-2-(3-((R)-3-(dimethylamino)pyrrolidin-1-yl)-1-methyl-1H-indazol-5-yl)-5-methylbenzo[d]thiazol-6-yl)acetic acid]: the EC50 in data set [1] turned out to be 938 nM; in data set [2] it was 14 nM; in data set [3] it was 1940 nM. In addition, in data set [4], the half-life came out at 6.05 h.

For `Cc1cc2nc(-c3ccc4c(n3)c(C3CCN(CCN(C)C)CC3)nn4C)sc2c(-c2ccc(Cl)cc2)c1[C@H](OC(C)(C)C)C(=O)O` [Compound 173, (S)-2-(tert-butoxy)-2-(7-(4-chloro-phenyl)-2-(3-(1-(2-(dimethylamino)ethyl)piperidin-4-yl)-1-methyl-1H-pyrazolo[4,3-b]pyridin-5-yl)-5-methylbenzo[d]thiazol-6-yl) acetic acid], the EC50 in data set [1] turned out to be 45 nM; in data set [2] it was 2 nM; in data set [3] it was 89 nM. The molecule also came in with a half-life in data set [4] of 1.2 h.

Turning to `Cc1cc2nc(-c3ccc4c(n3)c(C3CCN([C@H]5CCN(C)C5)CC3)nn4C)sc2c(-c2ccc(Cl)cc2)c1[C@H](OC(C)(C)C)C(=O)O` [Compound 172, (S)-2-(tert-butoxy)-2-(7-(4-chloro-phenyl)-5-methyl-2-(1-methyl-3-(1-((S)-1-methyl-pyrrolidin-3-yl)piperidin-4-yl)-1H-pyrazolo[4,3-b]pyridin-5-yl)benzo[d]thiazol-6-yl)acetic acid], the EC50 in data set [1] is 54 nM; in data set [2], 5 nM; in data set [3] it was 118 nM. Also, the half-life in data set [4] came out at 0.933 h.

These data come from patent US10800772B2 (Gilead Sciences, Inc., priority 2016, dated 2020).
